Source: publication PMC7287882, “Dual miRNases for Triple Incision of miRNA Target: Design Concept and Catalytic Performance” (Molecules, 2020)

Experiments:
miR-18a = experiment: Ribonuclease activity assay, cleavage of miR-18a; format: biochemical; settings: miRNA 1 µM, DC 20 µM, 37 °C
Protocol: (§1) The ribonuclease activity of DCs was studied under two different buffer conditions: buffer (1) contained 50 mM Tris-HCl, pH 7.0, 200 mM KCl, 1 mM EDTA, which imitates intracellular conditions (e.g., pH and potassium ions concentration) and was used in a number of studies previously; and buffer (2) contained 20 mM Tris-HCl, pH 7.8, 40 mM KCl, 8 mM MgCl2, 1 mM DTT, 0.02 mg/mL BSA, which is recommended for in vitro reactions with RNase H (Figure 3 and Figure 4).
Figure 3 Kinetics of cleavage of 5′-[^32P]-labeled miR-17, miR-18a, miR-155, miR-21 and miR-21_1 by corresponding DCs in the buffer (1), containing 50 mM Tris-HCl, pH 7.0, 200 mM KCl and 1 mM EDTA. (a–e) Radioautographs of 18% denaturing PAAG showing the cleavage products of miR-17, miR-18a, miR-155, miR-21 and miR-21_1, respectively. miRNA (1 µM) and corresponding DC (20 µM) were incubated at 37 °C for 72 h. Lanes Im and T1—imidazole ladder and partial RNA digestion with RNase T1, respectively; control–miRNA was incubated in the absence of the conjugate. The incubation time (in hours) is show at the top. SS gap–single-stranded region of miRNA formed upon hybridization with DC; (f) Kinetics of miRNAs cleavage by DCs depending on the incubation time. Data are presented as mean ± s.e.
Figure 4 Kinetics of cleavage of 5′-[^32P]-labeled miR-17, miR-18a, miR-155, miR-21, and miR-21_1 by corresponding DCs in the buffer (2), containing 20 mM Tris-HCl, pH 7.8, 40 mM KCl, 8 mM MgCl2, 1 mM DTT, 0.02 mg/mL BSA. (a–e) Radioautographs of 18% denaturing PAAG showing the cleavage products of miR-17, miR-18a, miR-155, miR-21 and miR-21_1, respectively. miRNA (1 µM) and corresponding DC (20 µM) were incubated at 37 °C for 72 h. Lanes Im and T1–imidazole ladder and partial RNA digestion with RNase T1, respectively; control–miRNA was incubated in the absence of the conjugate. The incubation time (in hours) is shown at the top. SS gap–single-stranded region of miRNA formed upon hybridization with DC; (f) Kinetics of miRNAs cleavage by DCs. Data are presented as mean ± s.e.
(§2) The reaction mixture (10 µL) contained 800 cpm (Cherenkov’s counting) of [^32P]-miRNA, 1 μM unlabeled miRNA, one of the conjugates at a concentration 10 or 20 μM and one of the buffers: 50 mM Tris-HCl, pH 7.0, 200 mM KCl, 1 mM EDTA–buffer (1) or 20 mM Tris-HCl, pH 7.8, 40 mM KCl, 8 mM MgCl2, 1 mM DTT, 0.02 mg/mL BSA–buffer (2). The mixture was incubated at 37 °C for 0–72 h and quenched by precipitation of RNA with 2% LiClO4 in acetone (90 µL). RNA was collected by centrifugation and dissolved in loading buffer (8 M urea, 0.025% bromophenol blue, 0.025% xylene cyanol). RNA cleavage products were analyzed in 18% PAAG/8M urea using TBE (100 mM Tris-borate, pH 8.3, 2 mM EDTA) as running buffer. To identify cleavage sites, an imidazole and T1-ladders produced by partial RNA cleavage with 2 M imidazole buffer (pH 7.0) and with RNase T1 [68], respectively, were run in parallel. To obtain quantitative data, gels were dried and analyzed using Molecular Imager FX. The total extent of RNA cleavage and the extent of RNA cleavage at each individual site were determined by using Quantity One software v.4.1 (Bio-Rad, Hercules, CA, USA).

miR-21_1 = experiment: Ribonuclease activity assay, cleavage of modified miR-21_1; format: biochemical; settings: miRNA 1 µM, DC 20 µM, 37 °C
Protocol: as §1
Despite the high binding affinity of all DCs to their matching miRNA targets, miR-21 was not cleaved by the corresponding Dual conjugate (Figure 3d). The most probable reason for this was the absence of the pyrimidine-A sites sensitive towards cleavage by this type of conjugates within the single-stranded “gap” formed upon binding to conjugate. In order to verify this hypothesis, we tested the cleavage of the modified miR-21 sequence (miRNA-21_1) containing 2 substitutions in the gap region (AGACU → AUACA) to generate C-A and U-A bonds. Such replacement, indeed, led to a noticeable cleavage of the miR-21_1 target with miR-21-targeting DC at the introduced U11-A12 and C13-A14 sites (Figure 3e) with the cleavage efficiency reaching 18% (Figure 3f, Table S2).
as §2

[1] = buffer (1) 50 mM Tris-HCl pH 7.0, 200 mM KCl, 1 mM EDTA, 2 h
[2] = buffer (1) 50 mM Tris-HCl pH 7.0, 200 mM KCl, 1 mM EDTA, 24 h
[3] = buffer (1) 50 mM Tris-HCl pH 7.0, 200 mM KCl, 1 mM EDTA, 48 h
[4] = buffer (2) 20 mM Tris-HCl pH 7.8, 40 mM KCl, 8 mM MgCl2, 1 mM DTT, 0.02 mg/mL BSA, 6 h
[5] = buffer (2) 20 mM Tris-HCl pH 7.8, 40 mM KCl, 8 mM MgCl2, 1 mM DTT, 0.02 mg/mL BSA, 24 h
[6] = buffer (2) 20 mM Tris-HCl pH 7.8, 40 mM KCl, 8 mM MgCl2, 1 mM DTT, 0.02 mg/mL BSA, 48 h

| Substance | Total Cleavage (miR-18a; [1]) [%] | Total Cleavage (miR-18a; buffer (1) 50 mM Tris-HCl pH 7.0, 200 mM KCl, 1 mM EDTA, 6 h) [%] | Total Cleavage (miR-18a; [2]) [%] | Total Cleavage (miR-18a; [3]) [%] | Total Cleavage (miR-18a; buffer (1) 50 mM Tris-HCl pH 7.0, 200 mM KCl, 1 mM EDTA, 72 h) [%] | Total Cleavage (miR-18a; buffer (2) 20 mM Tris-HCl pH 7.8, 40 mM KCl, 8 mM MgCl2, 1 mM DTT, 0.02 mg/mL BSA, 2 h) | Total Cleavage (miR-18a; [4]) [%] | Total Cleavage (miR-18a; [5]) [%] | Total Cleavage (miR-18a; [6]) [%] | Total Cleavage (miR-18a; buffer (2) 20 mM Tris-HCl pH 7.8, 40 mM KCl, 8 mM MgCl2, 1 mM DTT, 0.02 mg/mL BSA, 72 h) [%] | rise of Kobs in buffer (2) compared to Kobs in buffer (1) (miR-18a) [fold] | Total Cleavage (miR-21_1; [1]) | Total Cleavage (miR-21_1; [2]) [%] | Total Cleavage (miR-21_1; [3]) [%] | Total Cleavage (miR-21_1; [4]) [%] | Total Cleavage (miR-21_1; [5]) [%] | Total Cleavage (miR-21_1; [6]) [%] | rise of Kobs in buffer (2) compared to Kobs in buffer (1) (miR-21_1) [fold] |
| --- | --- | --- | --- | --- | --- | --- | --- | --- | --- | --- | --- | --- | --- | --- | --- | --- | --- | --- |
| TATCTGC–linker 1–[GRLRL]2–linker 2–ATGCACCTTA [miRNA-18a-DC, Dual oligonucleotide-peptide conjugate targeted to miR-18a: catalytic peptide [LRLRG]2 between two 2-aminoadenine-containing oligodeoxyribonucleotides] | 0 | 1 | 3 | 7 | 8 | 1,4% | 5 | 19 | 23 | 37 | 7 | – | – | – | – | – | – | – |
| TCAACATC–linker 1–[GRLRL]2–linker 2–GATAAGCTA [miRNA-21-DC, Dual oligonucleotide-peptide conjugate targeted to miR-21: catalytic peptide [LRLRG]2 between two 2-aminoadenine-containing oligodeoxyribonucleotides] | – | – | – | – | – | – | – | – | – | – | – | 0,7% | 10 | 18 | 14 | 48 | 63 | 3 |
